The values below come from patent publication US5420282A, “Thiopyrano(2,3,4-c,d) indolyloxime ether alkylcarboxylates” (Abbott Laboratories, priority 1994, dated 1995).

The test system of the test is calcium ionophore-induced LTB4 biosynthesis. Kind of test: Inhibition of calcium ionophore-induced LTB4 biosynthesis in human whole blood. The format is cell-based. The note with it: human heparinized whole blood; 15 min preincubation at 37° C.; A23187 8.3 μM, 30 minutes; LTB4 by radioimmunoassay; read-out: IC50, inhibition of leukotriene biosynthesis in human whole blood. How it is done: Inhibition of leukotriene biosynthesis was evaluated in an assay, involving calcium ionophore-induced LTB4 biosynthesis expressed human whole blood. Human heparinized whole blood was proincubated with test compounds or vehicle for 15 min at 37° C. followed by calcium ionophore A23187 challenge (final concentration of 8.3 μM) and the reaction terminated after 30 minutes by adding two volumes of methanol containing prostaglandin B2 as an internal recovery standard. The methanol extract was analyzed for LTB4 using a commercially available radioimmunoassay.

As usually defined, the IC50 is the concentration that gives 50% inhibition. Regarding `CC1Cc2c(OCc3ccc4ccccc4n3)ccc3c2c(c(CC(C)(C)C=NOCC(=O)O)n3Cc2ccc(Cl)cc2)S1` (centres unmarked) [Example 1, 3-[1-(4-chlorobenzyl)-4-methyl-6-(quinolin-2-ylmethoxy]-4,5-dihydro-1H-thiopyrano[2,3,4-c,d]indol-2-yl]-2,2dimethylpropionaldehyde oxime-O-acetic acid], the IC50 amounted to 2.7 µM. `CC1Cc2c(OCc3ccc(-c4ccccc4)cn3)ccc3c2c(c(CC(C)(C)C=NOCC(=O)O)n3Cc2ccc(Cl)cc2)S1` (centres unmarked) [Example 2, 3-[1-(4-chlorobenzyl)-4-methyl-6-(5-phenylpyridin-2-ylmethoxy]-4,5-dihydro-1H-thiopyrano[2,3,4-c,d]indol-2-yl]-2,2-dimethylpropionaldehyde oxime-O-acetic acid]: the IC50 was found to be 0.4 µM.
